{
  "source": "patent US20060069132A1",
  "about": "“Azolecarboxamide herbicides” (priority 2004, published 2006)",
  "key": {"Surinam grass": {"tested_on": "Surinam grass", "test": "Test C pre-/postemergence herbicide test", "assay_type": "in vivo, Urochloa decumbens", "details": "preemergence", "outline": "(§1)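 Seeds were planted and sprayed preemergence with test chemicals in a non-phytotoxic solvent mixture containing surfactant; postemergence treatments went onto plants 2 to 18 cm tall (1- to 4-leaf stage). After 12 to 14 days in a greenhouse, injury was rated visually against untreated controls on a 0–100 scale.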"}, "corn": {"tested_on": "corn", "test": "Test C pre-/postemergence herbicide test", "assay_type": "in vivo, Zea mays", "details": "preemergence", "outline": "as §1"}, "woolly cupgrass": {"tested_on": "woolly cupgrass", "test": "Test C pre-/postemergence herbicide test", "assay_type": "in vivo, Eriochloa villosa", "details": "preemergence", "outline": "as §1"}, "johnsongrass": {"tested_on": "johnsongrass", "test": "Test C pre-/postemergence herbicide test", "assay_type": "in vivo, Sorghum halepense", "details": "preemergence", "outline": "as §1"}, "eastern black nightshade": {"tested_on": "eastern black nightshade", "test": "Test C pre-/postemergence herbicide test", "assay_type": "in vivo, Solanum ptycanthum", "details": "preemergence", "outline": "as §1"}, "[1]": {"tested_on": "common (oilseed) sunflower", "test": "Test C pre-/postemergence herbicide test", "assay_type": "in vivo, Helianthus annuus", "details": "preemergence", "outline": "as §1"}, "velvetleaf": {"tested_on": "velvetleaf", "test": "Test C pre-/postemergence herbicide test", "assay_type": "in vivo, Abutilon theophrasti", "details": "preemergence", "outline": "as §1"}, "[2]": {"tested_on": "smallflower umbrella sedge", "test": "Test C flooded paddy test", "assay_type": "in vivo, Cyperus difformis", "details": "for Plant response rating, Sedge, Umbrella: 500 g ai/ha, visual rating after 12 to 14 days"}, "[3]": {"details": "500 g ai/ha, scale 0 to 100 (0 no effect, 100 complete control), visual, 12 to 14 days"}, "[4]": {"details": "125 g ai/ha, scale 0 (no effect) to 100 (complete control), visual, 12 to 14 days"}, "[5]": {"details": "125 g ai/ha, scale 0 to 100 (0 no effect, 100 complete control)"}, "[6]": {"details": "250 g ai/ha, scale of 0 to 100, 0 is no effect, 100 is complete control"}, "[7]": {"details": "scale 0 to 100 (0 no effect, 100 complete control)"}},
  "data": [
    {"compound": "CCN(C)C(=O)c1ccc(F)c(NC(=O)C2CC(C(C)(C)C)=NN2CC)c1", "note": "(racemic) [Compound 307]", "values": [
      {"measurement": "Plant response rating, Surinam Grass", "setting": "Surinam grass; 62 g ai/ha, scale 0 to 100", "result": 70},
      {"measurement": "Plant response rating, Surinam Grass", "setting": "Surinam grass; 250 g ai/ha, scale 0-100", "result": 90},
      {"measurement": "Plant response rating, Surinam Grass", "setting": "Surinam grass; [3]", "result": 90},
      {"measurement": "Plant response rating, Corn", "setting": "corn; 62 g ai/ha, scale 0 to 100", "result": 0},
      {"measurement": "Plant response rating, Corn", "setting": "corn; [4]", "result": 20},
      {"measurement": "Plant response rating, Corn", "setting": "corn; 250 g ai/ha, scale 0-100", "result": 30},
      {"measurement": "Plant response rating, Corn", "setting": "corn; [3]", "result": 45},
      {"measurement": "Plant response rating, Cupgrass, Woolly", "setting": "woolly cupgrass; 62 g ai/ha, scale 0 to 100", "result": 5},
      {"measurement": "Plant response rating, Cupgrass, Woolly", "setting": "woolly cupgrass; [4]", "result": 40},
      {"measurement": "Plant response rating, Cupgrass, Woolly", "setting": "woolly cupgrass; 250 g ai/ha, scale 0-100", "result": 70},
      {"measurement": "Plant response rating, Cupgrass, Woolly", "setting": "woolly cupgrass; [3]", "result": 85},
      {"measurement": "Plant response rating, Johnsongrass", "setting": "johnsongrass; 62 g ai/ha, scale 0 to 100", "result": 60},
      {"measurement": "Plant response rating, Johnsongrass", "setting": "johnsongrass; [4]", "result": 80},
      {"measurement": "Plant response rating, Johnsongrass", "setting": "johnsongrass; 250 g ai/ha, scale 0-100", "result": 90},
      {"measurement": "Plant response rating, Johnsongrass", "setting": "johnsongrass; [3]", "result": 100},
      {"measurement": "Plant response rating, Nightshade", "setting": "eastern black nightshade; 62 g ai/ha, scale 0 to 100", "result": 100},
      {"measurement": "Plant response rating, Nightshade", "setting": "eastern black nightshade; [4]", "result": 100},
      {"measurement": "Plant response rating, Nightshade", "setting": "eastern black nightshade; 250 g ai/ha, scale 0-100", "result": 100},
      {"measurement": "Plant response rating, Nightshade", "setting": "eastern black nightshade; [3]", "result": 100},
      {"measurement": "Plant response rating, Sunflower", "setting": "[1]; 62 g ai/ha, scale 0 to 100", "result": 0},
      {"measurement": "Plant response rating, Sunflower", "setting": "[1]; 250 g ai/ha, scale 0-100", "result": 60},
      {"measurement": "Plant response rating, Sunflower", "setting": "[1]; [3]", "result": 60},
      {"measurement": "Plant response rating, Velvetleaf", "setting": "velvetleaf; 62 g ai/ha, scale 0 to 100", "result": 70},
      {"measurement": "Plant response rating, Velvetleaf", "setting": "velvetleaf; 250 g ai/ha, scale 0-100", "result": 100},
      {"measurement": "Plant response rating, Velvetleaf", "setting": "velvetleaf; [3]", "result": 100},
      {"measurement": "Sedge, Umbrella plant response rating", "setting": "[2]; 62 g ai/ha, scale 0 to 100", "result": 40},
      {"measurement": "Sedge, Umbrella plant response rating", "setting": "[2]; [5]", "result": 70},
      {"measurement": "Sedge, Umbrella plant response rating", "setting": "[2]; [6]", "result": 80},
      {"measurement": "Plant response rating, Sedge, Umbrella", "setting": "[2]; [7]", "result": 85}
    ]},
    {"compound": "CCC1=NN(C(C)(C)C)CC1C(=O)Nc1cc(C(=O)N(C)C)ccc1F", "note": "(racemic) [Compound 343]", "values": [
      {"measurement": "Plant response rating, Surinam Grass", "setting": "Surinam grass; 62 g ai/ha, scale 0 to 100", "result": 60},
      {"measurement": "Plant response rating (0 = no effect, 100 = complete control), Surinam Grass", "setting": "Surinam grass; 125 g ai/ha", "result": 85},
      {"measurement": "Plant response rating, Surinam Grass", "setting": "Surinam grass; 250 g ai/ha, scale 0-100", "result": 100},
      {"measurement": "Plant response rating, Surinam Grass", "setting": "Surinam grass; [3]", "result": 100},
      {"measurement": "Plant response rating, Corn", "setting": "corn; 62 g ai/ha, scale 0 to 100", "result": 40},
      {"measurement": "Plant response rating (0 = no effect, 100 = complete control), Corn", "setting": "corn; 125 g ai/ha", "result": 70},
      {"measurement": "Plant response rating, Corn", "setting": "corn; 250 g ai/ha, scale 0-100", "result": 70},
      {"measurement": "Plant response rating, Corn", "setting": "corn; [3]", "result": 80},
      {"measurement": "Plant response rating, Cupgrass, Woolly", "setting": "woolly cupgrass; 62 g ai/ha, scale 0 to 100", "result": 40},
      {"measurement": "Plant response rating (0 = no effect, 100 = complete control), Cupgrass, Woolly", "setting": "woolly cupgrass; 125 g ai/ha", "result": 65},
      {"measurement": "Plant response rating, Cupgrass, Woolly", "setting": "woolly cupgrass; 250 g ai/ha, scale 0-100", "result": 70},
      {"measurement": "Plant response rating, Cupgrass, Woolly", "setting": "woolly cupgrass; [3]", "result": 100},
      {"measurement": "Plant response rating, Johnsongrass", "setting": "johnsongrass; 62 g ai/ha, scale 0 to 100", "result": 70},
      {"measurement": "Plant response rating (0 = no effect, 100 = complete control), Johnsongrass", "setting": "johnsongrass; 125 g ai/ha", "result": 80},
      {"measurement": "Plant response rating, Johnsongrass", "setting": "johnsongrass; 250 g ai/ha, scale 0-100", "result": 100},
      {"measurement": "Plant response rating, Johnsongrass", "setting": "johnsongrass; [3]", "result": 100},
      {"measurement": "Plant response rating, Nightshade", "setting": "eastern black nightshade; 62 g ai/ha, scale 0 to 100", "result": 60},
      {"measurement": "Plant response rating (0 = no effect, 100 = complete control), Nightshade", "setting": "eastern black nightshade; 125 g ai/ha", "result": 60},
      {"measurement": "Plant response rating, Nightshade", "setting": "eastern black nightshade; 250 g ai/ha, scale 0-100", "result": 90},
      {"measurement": "Plant response rating, Nightshade", "setting": "eastern black nightshade; [3]", "result": 95},
      {"measurement": "Plant response rating, Sunflower", "setting": "[1]; 62 g ai/ha, scale 0 to 100", "result": 10},
      {"measurement": "Plant response rating (0 = no effect, 100 = complete control), Sunflower", "setting": "[1]; 125 g ai/ha", "result": 75},
      {"measurement": "Plant response rating, Sunflower", "setting": "[1]; 250 g ai/ha, scale 0-100", "result": 80},
      {"measurement": "Plant response rating, Sunflower", "setting": "[1]; [3]", "result": 100},
      {"measurement": "Plant response rating, Velvetleaf", "setting": "velvetleaf; 62 g ai/ha, scale 0 to 100", "result": 60},
      {"measurement": "Plant response rating (0 = no effect, 100 = complete control), Velvetleaf", "setting": "velvetleaf; 125 g ai/ha", "result": 80},
      {"measurement": "Plant response rating, Velvetleaf", "setting": "velvetleaf; 250 g ai/ha, scale 0-100", "result": 100},
      {"measurement": "Plant response rating, Velvetleaf", "setting": "velvetleaf; [3]", "result": 100},
      {"measurement": "Sedge, Umbrella plant response rating", "setting": "[2]; 62 g ai/ha, scale 0 to 100", "result": 20},
      {"measurement": "Sedge, Umbrella plant response rating", "setting": "[2]; [5]", "result": 40},
      {"measurement": "Sedge, Umbrella plant response rating", "setting": "[2]; [6]", "result": 80},
      {"measurement": "Plant response rating, Sedge, Umbrella", "setting": "[2]; [7]", "result": 90}
    ]}
  ]
}
